# Measured values: patent US8586571B2, “Heterocyclic compound” (Takeda Pharmaceutical Company Limited, priority 2007, dated 2013)
# What was measured:
# [1] = molecular target: RBP4 (Mus musculus (Mouse), UniProt Q00724); assay: Blood RBP4 lowering action in C57BL/6J mouse (plasma RBP4 by ELISA); format: in vivo; conditions: mean±SD (n=5)
# Description: A blood RBP4 lowering action of the compound of the present invention was evaluated using C57BL/6J mouse.
# Male 7- to 15-week-old C57BL/6J mice (Charles River Laboratories Japan Inc.) were individually bred for acclimation for 4-6 days under conditions with free access to CE-2 solid food (CLEA Japan, Inc.), and grouped based on the body weight (5 per group). The next day of grouping, blood samples were collected from the orbital venous plexus, and plasma was separated (0 hr value). Thereafter, the test compounds (Examples 12, 143, 164, 189, 197, 207 and 215) were orally administered at a dose of 50 mg/kg (solvent: 0.5% methylcellulose solution (10 mL/kg)). At 4, 7 and 24 hr after administration of the compounds, blood samples were collected from the orbital venous plexus, and plasma was separated. A 0.5% methylcellulose solution (10 mL/kg) was orally administered to the control group.
# The RBP4 level of the collected plasma was measured by ELISA. RBP4 was quantified by the following steps using a rabbit anti-mouse RBP4 polyclonal antibody (Hokudo Co., Ltd). A 96 well ELISA plate was coated with 50 μg/mL of the antibody (100 μL) and stood at 4° C. overnight. After blocking with BlockAce (DAINIPPON PHARMACEUTICAL CO., LTD.), mouse RBP4 or a sample (100 μL) was added and the plate was stood at room temperature for 2 hr. After washing with PBS-0.5% Tween 20, HRP-labeled anti-RBP4 antibody (prepared by labeling RBP4 polyclonal antibody (Hokudo Co., Ltd) with HRP (DOJINDO LABORATORIES)) was added by 100 μL, and the plate was stood at room temperature for 1 hr. After washing, TMB (Dako Cytomations) was added, and the mixture was stood at room temperature for 20 min to allow color development, and the reaction was quenched with 2N sulfuric acid. Thereafter, the absorbance at A450 nm was measured on a platereader. The amount of change from the initial value of each animal was determined as a relative value from the control group (% of initial/Control) at each time point. The results are shown in the following in mean±standard deviation (n=5).
# [2] = system: Zucker fa/fa rat; assay: TG-lowering action using Zucker fa/fa rat (Charles River Laboratories Japan Inc.); format: in vivo; conditions: oral 30 mg/kg for 2 weeks
# Description: An anti-diabetes action and a blood triglyceride (hereinafter TG)-lowering action of the compound of the present invention were evaluated using Zucker fa/fa rats.
# Male 10-week-old Zucker fa/fa rats (Charles River Laboratories Japan Inc.) were bred in group on CE-2 solid food (CLEA Japan, Inc.) until 12-week-old for acclimation under conditions with free access to food. At 12-week-old, the rats were grouped based on the body weight, blood glucose level, glycated hemoglobin level, blood RBP4 level and blood triglyceride blood (hereinafter TG) (5 per group). Thereafter, the test compound (Example 12) was orally administered at a dose of 30 mg/kg (solvent: 0.5% methylcellulose solution (3 mL/kg)) for 2 weeks. The next day of the final administration of the compound, blood samples were collected from the tail vein, and plasma was separated. Using the collected plasma, (1) RBP4 concentration and (2) TG level were measured. (1) was quantified according to the protocol described in Experimental Example 2. (2) was measured using Hitachi fully automatic analyzer (Model 7070).
# A 0.5% methylcellulose solution (5 mL/kg) was orally administered to the control group. […] The results are shown in the following in mean±standard deviation (n=5).
# [3] = molecular target: human RBP4 (Homo sapiens (Human), UniProt P02753); assay: Binding assay by Retinol-RBP4-TTR ELISA (human-type ELISA); conditions: inhibition of binding of RBP4 with retinol and TTR; retinol 0.5 μM; read-out: human RBP4 binding inhibitory activity (IC50 nM)
# Description: The action of the compound of the present invention to inhibit binding of RBP4 and retinol and TTR was evaluated using the Retinol-RBP4-TTR ELISA (human-type ELISA) system shown below.
# Binding Assay by Retinol-RBP4-TTR ELISA
# This ELISA system detects a complex of retinol, RBP4 and TTR by Streptoavidin-Biotin reaction.
# His-tagged human RBP4 used was prepared in the above-mentioned 1C.
# Biotinylate human TTR used was prepared in the above-mentioned 1E.
# Streptavidin (20 μl) (10 μg/ml Streptavidin type II (Wako Pure Chemical Industries, Ltd.), 10 mM Tris-HCl (pH 7.5), 10 mM NaCl) was added to a 384 well black maxisorp plate (Nunc), and the plate was subjected to centrifugation (1000 rpm, 1 min) and coated overnight at 4° C. The plate was washed twice with PBST (PBS, 0.05% Tween 20, 100 μl/well) and blocked with 25% Block Ace (Snow Brand Milk Products Co., Ltd., PBS, 100 μl/well). The plate was subjected to centrifugation (1000 rpm, 1 min) and incubated at room temperature for 4 hr or overnight at 4° C. The plate was washed twice with PEST (PBS, 0.05% Tween 20, 100 μl/well), and biotinylated human TTR (stock solution concentration 1.3 mg/ml) diluted 1000-fold with PBST was added at 20 μl/well. The plate was subjected to centrifugation (1000 rpm, 1 min) and stood still at room temperature for 1.5 hr or overnight at 4° C. The plate was washed 3 times with PBST (100 μl/well), and His-tagged human RBP4 (stock solution concentration 0.96 mg/ml) diluted 4000-fold with a reaction buffer (50 mM Tris-HCl, 150 mM NaCl, 0.005% Tween 20, 1 mM DTT, 0.1% BSA) was added at 10 μl/well. The dilution series (8 doses from 10 mM, 200-fold concentration) of the compound was prepared with DMSO, and 1 μl of each was added to a reaction buffer (200 μl) containing retinol (0.5 μM) (Sigma-Aldrich Co.). A reaction buffer (200 μl) containing retinol and added with DMSO was used as a positive control, and reaction buffer (200 μl) free of retinol and added with DMSO was used as a negative control. Mixed solutions of retinol and the compound were added to the plate at 15 μl/well. The mixture was stirred in a platemixer subjected to centrifugation (1000 rpm, 1 min) and reacted at room temperature for 2 hr. A 35% Block Ace solution diluted with the reaction buffer was added at 10 μl/well, centrifuged (1000 rpm, 1 min) and reacted at room temperature for 30 min. The plate was washed 3 times with PBST (100 μl/well) and SuperSignal ELISA Femto Maximum Sensitivity Substrate reagent (PIERCE) was added at 30 μl/well, and the luminescence was measured by a platereader (Wallac).
# The binding inhibitory rate of the compound was determined by 100×(test compound value-negative control value)/(positive control value-negative control value). The binding activity (IC50) was calculated from the binding inhibitory rate at each compound concentration using a graph drawing software, Prism (GraphPad Software Inc.).
smiles,measurement,setting,value
"CC(C)(C)c1ccccc1OC1CN(C(=O)CCC(=O)O)C1 [Example 12, 4-(3-(2-tert-butylphenoxy)azetidin-1-yl)-4-oxobutanoic acid]",RBP4 (% of initial/Control) 4 hr later,[1]; 4 hr after single oral 50 mg/kg,57.7 ± 3.6 % of initial/Control
same,RBP4 (% of initial/Control) 7 hr later,[1]; 7 hr after single oral 50 mg/kg,44.3 ± 2.0 % of initial/Control
same,RBP4 (% of initial/Control) 24 hr later,[1]; 24 hr after single oral 50 mg/kg,50.0 ± 3.4 % of initial/Control
same,TG (result in words),[2]; versus control,significant decrease
same,blood RBP4 concentration (result in words),[2]; versus control,significant decrease
same,RBP4,"[2]; plasma, mean±SD (n=5)",8.2 ± 1.1 µg/mL
same,TG,"[2]; plasma, mean±SD (n=5)",650.8 ± 130.6 mg/dL
same,IC50,[3],210 nM
